Laboratory results taken from patent publication US20240043390A1, “COMPOSITIONS AND METHODS FOR TREATING CANCER” (The Regents of the University of California, priority 2017, published 2024).
Where two headings read alike, the source gives them in different places.

Columns and labels:
Kpuu = format: in vivo; conditions: average; for Kp uu: brain/blood
Source text: (§1) Fu refers to “fraction unbound”.

[1] = test system: patient-derived GBM gliomaspheres; assay: Annexin V apoptosis assay; format: cell-based, human; conditions: for lethality in combination with nutlin: EGFRi non-responder cells (HK393, HK254)
Procedure: (§2) Cells were collected and analyzed for Annexin V and PI staining according to manufacturer's protocol (BD Biosciences). Briefly, cells were plated at 5×10^4 cells/ml and treated with appropriate drugs. Following indicated time points, cells were collected, trypsinized, washed with PBS, and stained with Annexin V and PI for 15 minutes. Samples were then analyzed using the BD LSRII flow cytometer.
(§3) Annexin V staining was measured following 72 hrs of treatment. Using the Chalice software, the response of the combination was compared to its single agents. The combinatorial effects were calculated using the synergy score.

[2] = test system: GBM39 intracranial xenografts; assay: 18F-FDG PET/CT imaging of intracranial xenografts; format: in vivo, NSG mice; conditions: erlotinib 75 mg/kg, 15 hours post administration
Procedure: (§4) Drugs were administered through oral gavage.
(§5) Following 1 hr unconscious uptake, mice were taken off anesthesia but kept warm for another 5 hr of uptake. 6 hr after the initial administration of ^18F-FDG, mice were imaged using G8 PET/CT scanner (Sofie Biosciences). Per above, quantification was performed by drawing 3D regions of interest (ROI) using the AMIDE software.

[3] = test system: HK393 intracranial xenografts; assay: 18F-FDG PET/CT imaging of intracranial xenografts; format: in vivo, NSG mice; conditions: acute EGFRi (erlotinib 75 mg/kg)
Procedure: as §4, §5

gliomas = conditions: cited from earlier work
[4] = Protein binding (fraction unbound) in blood and brain; format: in vitro ADME
Source text: as §1

HK301 cells = assay: Annexin V apoptosis assay; format: cell-based, human; conditions: HK301 gliomaspheres, 72 hours, nutlin 2.5 μM
Procedure: as §2, §3

HK301 = assay: GI50 assay, Cell Titer Glo, 3 days; format: cell-based, human; conditions: HK301, FIG. 2
Procedure: The GI50 Assays were performed using patient-derived glioblastoma cells. […] Cells were incubated for 3 days and then proliferation was assessed by Cell Titer Glo (Promega #G7570).

GBM39 = assay: GI50 assay, Cell Titer Glo, 3 days; format: cell-based, human; conditions: GBM39, FIG. 2
[5] = Pharmacokinetic studies, plasma and brain; format: in vivo, male CD-1 mice; conditions: oral; JGK005 10 mg/kg, erlotinib 25 mg/kg; FIG. 1
Procedure: Pharmacokinetic studies were performed on male CD-1 mice aged 8-10 weeks. Mice were dosed as indicated in duplicates. At the time points, whole blood was obtained by retro-orbital bleeding and brain tissue was harvested. Blood samples were centrifuged to obtain plasma and brain tissue was washed and homogenized. Samples were extracted with acetonitrile and supernatant was dried using a speed-vac. Dried samples were solubilized in 50:50:0.1 acetonitrile:water:formic acid and quantified on an Agilent 6400 series Triple Quadrupole LC/MS.

HK393 and HK254 cells = assay: 18F-FDG uptake assay in cells; format: cell-based, human; conditions: 4 hours, pictilisib 1 μM
Procedure: Cells were plated at 5×10^4 cells/ml and treated with designated drugs for indicated time points. Following appropriate treatment, cells were collected and resuspended in glucose-free DMEM/F12 (USBiological) containing ^18F-FDG (radioactivity 1 μCi/mL). Cells were incubated at 37° C. for 1 hr and then washed three times with ice cold PBS. Radioactivity of each sample was then measured using a gamma counter.

C#Cc1cccc(Nc2ncnc3cc(OCCOC)c(OCCOC)cc23)c1 [Erlotinib]
Kp uu (Kpuu): 0.0513 | apoptosis (annexin V staining) ([1]; non-responders, 72 hours of erlotinib exposure, 1 μM): −3% | 18F-FDG uptake (PET) [2]: rapidly reduced ^18F-FDG uptake | 18F-FDG uptake (PET) [3]: no changes in ^18F-FDG uptake | response rates (gliomas): ≤ 25%

COc1cc2ncnc(Nc3cccc(Cl)c3F)c2cc1OC(=O)N1CCN(C)C[C@H]1C [AZD3759]
Bound (blood) [4]: 94.07% | Bound (brain) [4]: 97.23% | fraction unbound [4]: 0.0277 | fraction unbound ([4]; blood): 0.0593 | Kpuu (Avg) (Kpuu): 1.30

C=C(C)[C@H]1Cc2c(ccc3c2O[C@@H]2COc4cc(OC)c(OC)cc4[C@@H]2C3=O)O1 [rotenone]
synergy with nutlin (HK301 cells): did not synergize with nutlin treatment

CC[C@H]1/C=C/C=C/C[C@@H](C)[C@H](O)[C@@](C)(O)C(=O)[C@@H](C)[C@H](O)[C@@H](C)C(=O)[C@@H](C)[C@H](O)[C@@H](C)/C=C/C(=O)O[C@@H]2[C@H](C)[C@H](CC1)O[C@]1(CC[C@H](C)[C@H](C[C@@H](C)O)O1)[C@H]2C [oligomycin]
synergy with nutlin (HK301 cells): did not synergize with nutlin treatment

C#Cc1cccc(Nc2ncnc3cc4c(cc23)OCCO4)c1 [JGK005]
activity against EGFR mutant glioblastoma (HK301): lower activity than erlotinib | activity against EGFR mutant glioblastoma (GBM39): lower activity than erlotinib | CNS penetration [5]: good CNS penetration compared to erlotinib

Fc1c(Br)cccc1Nc1ncnc2cc3c(cc12)OCCO3 [JGK037, N-(3-Bromo-2-fluorophenyl)-7,8-dihydro[1,4]dioxino[2,3-g]quinazolin-4-amine]
Kpuu (Avg) (Kpuu): 1.2994

O=CC[C@@H](O)[C@H](O)[C@H](O)CO [2DG, 2-deoxyglucose]
synergy with nutlin (HK301 cells): synergy with nutlin | lethality in combination with nutlin [1]: synergistic lethality

Fc1c(Cl)cccc1Nc1ncnc2cc3c(cc12)OCCO3 [JGK010]
Bound (blood) ([4]; blood (first line of each compound)): 99.48% | fraction unbound ([4]; blood (first line of each compound), read-out: Fu (blood)): 0.0052 | Bound (brain) ([4]; brain (second line of each compound)): 99.44% | fraction unbound ([4]; brain (second line of each compound), read-out: Fu (brain)): 0.0056 | Kp uu (Kpuu): 1.15

CS(=O)(=O)N1CCN(Cc2cc3nc(-c4cccc5[nH]ncc45)nc(N4CCOCC4)c3s2)CC1 [pictilisib]
lethality in combination with nutlin [1]: synergistic lethality | 18F-FDG uptake (HK393 and HK254 cells): significantly reduced ^18F-FDG uptake
